From ChEMBL document CHEMBL1153125, “Benzylidene cyclopentenediones: First irreversible inhibitors against botulinum neurotoxin A's zinc endopeptidase” (Bioorg Med Chem Lett, 2010)

Assays:
[1] = target: Botulinum neurotoxin type A (Clostridium botulinum) (UniProt P0DPI0); assay: Ratio of Kinact to Ki for Clostridium botulinum BoNT/A
[2] = target: Matrix metalloproteinase-9 (Homo sapiens) (UniProt P14780); assay: Ratio of Kinact to Ki for MMP9
[3] = Selectivity for Clostridium botulinum BoNT/A over MMP9
[4] = target: 72 kDa type IV collagenase (Homo sapiens) (UniProt P08253); assay: Ratio of Kinact to Ki for MMP2
[5] = target: Botulinum neurotoxin type A (Clostridium botulinum, UniProt P0DPI0); assay: Inhibition of Clostridium botulinum BoNT/A
Botulinum neurotoxin type A, sequence (P0DPI0 2-448 limits assumed): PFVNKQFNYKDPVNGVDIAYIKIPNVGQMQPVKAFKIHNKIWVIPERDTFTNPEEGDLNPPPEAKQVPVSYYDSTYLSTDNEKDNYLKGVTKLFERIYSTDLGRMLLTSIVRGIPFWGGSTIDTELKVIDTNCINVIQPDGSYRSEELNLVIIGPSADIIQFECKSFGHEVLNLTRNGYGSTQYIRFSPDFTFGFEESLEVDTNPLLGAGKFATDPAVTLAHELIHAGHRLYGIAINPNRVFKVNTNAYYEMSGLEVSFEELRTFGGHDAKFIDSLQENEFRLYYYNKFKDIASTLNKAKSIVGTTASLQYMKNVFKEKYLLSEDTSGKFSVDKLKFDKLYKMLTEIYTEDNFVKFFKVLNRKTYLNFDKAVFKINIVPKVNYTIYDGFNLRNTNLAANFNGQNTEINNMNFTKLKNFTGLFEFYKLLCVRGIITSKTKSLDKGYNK

Botulinum neurotoxin type A (Clostridium botulinum), sequence (P0DPI0 2-448 limits assumed): as above
Matrix metalloproteinase-9 (Homo sapiens), sequence (P14780 whole entry): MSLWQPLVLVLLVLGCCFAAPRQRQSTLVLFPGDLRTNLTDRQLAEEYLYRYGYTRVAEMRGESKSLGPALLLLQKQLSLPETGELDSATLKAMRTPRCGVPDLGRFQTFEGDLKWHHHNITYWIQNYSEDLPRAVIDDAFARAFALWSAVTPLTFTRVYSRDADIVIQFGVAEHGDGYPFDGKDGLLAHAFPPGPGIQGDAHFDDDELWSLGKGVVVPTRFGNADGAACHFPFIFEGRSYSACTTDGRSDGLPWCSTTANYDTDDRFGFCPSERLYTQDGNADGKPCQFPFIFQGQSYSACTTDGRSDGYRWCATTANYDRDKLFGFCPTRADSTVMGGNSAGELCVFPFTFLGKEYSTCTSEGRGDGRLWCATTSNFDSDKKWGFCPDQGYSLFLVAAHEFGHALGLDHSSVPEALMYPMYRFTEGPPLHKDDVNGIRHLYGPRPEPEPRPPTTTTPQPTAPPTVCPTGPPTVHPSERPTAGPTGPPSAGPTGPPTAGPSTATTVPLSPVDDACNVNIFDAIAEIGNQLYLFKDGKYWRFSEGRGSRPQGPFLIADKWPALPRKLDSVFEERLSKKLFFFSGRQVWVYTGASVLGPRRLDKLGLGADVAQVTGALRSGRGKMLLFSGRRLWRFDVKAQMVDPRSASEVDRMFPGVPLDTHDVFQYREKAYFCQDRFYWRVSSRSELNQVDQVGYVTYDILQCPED
72 kDa type IV collagenase (Homo sapiens), sequence (P08253 110-660 limits assumed): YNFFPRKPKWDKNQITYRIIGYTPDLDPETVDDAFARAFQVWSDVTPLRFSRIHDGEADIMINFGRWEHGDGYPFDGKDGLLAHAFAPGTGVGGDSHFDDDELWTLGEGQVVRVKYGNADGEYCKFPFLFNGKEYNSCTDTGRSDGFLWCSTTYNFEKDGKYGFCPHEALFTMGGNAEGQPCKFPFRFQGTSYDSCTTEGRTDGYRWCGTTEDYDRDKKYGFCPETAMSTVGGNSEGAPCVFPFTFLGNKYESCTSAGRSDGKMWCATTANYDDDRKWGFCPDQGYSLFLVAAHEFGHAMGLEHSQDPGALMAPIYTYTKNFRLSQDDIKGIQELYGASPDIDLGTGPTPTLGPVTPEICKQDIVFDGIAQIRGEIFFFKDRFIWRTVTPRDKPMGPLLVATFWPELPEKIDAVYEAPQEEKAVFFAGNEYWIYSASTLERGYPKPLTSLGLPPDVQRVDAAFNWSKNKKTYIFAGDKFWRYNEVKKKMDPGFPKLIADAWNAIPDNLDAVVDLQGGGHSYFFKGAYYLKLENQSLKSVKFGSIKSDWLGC

| SMILES | Ratio [1] | Ratio [2] | Selectivity ratio [3] | Ratio [4] | IC50 [5] [µM] |
| --- | --- | --- | --- | --- | --- |
| Cc1cc(Cl)ccc1C=C1C(=O)C=CC1=O | 580 | 58 | 9 | – | – |
| O=C1C=CC(=O)C1=Cc1ccc(Cl)cc1Cl | 520 | 61 | 9 | < 33 | – |
| CCCCCc1ccc(C=C2C(=O)C=CC2=O)cc1 | 80 | – | – | – | – |
| CCCCCc1ccc(C(=O)NO)cc1 | – | – | – | – | 41 |
| Cc1cc(Cl)ccc1/C=C/C(=O)NO | – | – | – | – | 0.8 |
